{"source": "paper PMC3610419", "about": "“A Randomized, Double-Blind Placebo Controlled Trial of Balapiravir, a Polymerase Inhibitor, in Adult Dengue Patients” (The Journal of Infectious Diseases, 2012)", "key": {"[1]": {"assay": "Predefined clinical and routine laboratory endpoints in adult dengue patients", "assay_type": "in vivo, human", "settings": "for Maximum percentage increase of hematocrit level, Mean / Maximum percentage increase of hematocrit level, Median (IQR): from baseline; for Minimum quality of life score, Mean / Minimum quality of life score, Median (IQR): visual analogue scale 0-100", "excerpt": "Key viremia endpoints of the study were as follows: area under the log-transformed viremia curve (AUC) from first dose to the end of study day 7 (study hour 168), calculated on the basis of the trapezoidal rule with values below the limit of detection replaced by half of the detection limit; time to first viremia level of <1000 copies/mL until study day 7; and time to the first negative NS1 test result. Other predefined key endpoints included fever clearance time, defined as the time from the start of treatment to the start of the first 48-hour period during which axillary temperature remained <37.5°C; maximum hematocrit level; maximum percentage increase of hematocrit level from baseline; platelet count nadir; and lowest recorded quality of life score.\nTime to event endpoints were compared between treatment groups on the basis of Cox regression and continuous endpoints on the basis of linear regression. Analyses were adjusted for the predose value of the respective endpoint; viremia and NS1 endpoints were additionally adjusted for dengue serotype. For all endpoints, we report P values of a trend test for a dose-response relationship with treatment entered as a continuous variable with values 0 (placebo), 1 (low-dose), and 2 (high-dose) into the regression model."}, "[2]": {"assay": "Host immune response (plasma cytokines, whole blood transcripts) and virus sequence diversity in adult dengue patients", "assay_type": "in vivo, human", "protocol": "Plasma samples were collected for virological and immunological investigations every 12 hours, beginning immediately before commencement of treatment, during the next 6 study days and on one occasion on study day 7 and day 14 (virological markers) or day 7 and day 28 (immunological markers). Viremia was measured using a validated, internally controlled reverse-transcription polymerase chain reaction assay in a Good Clinical Laboratory Practice environment. The limit of detection was 357 copies/mL for DENV-1, 72 copies/mL for DENV-2, 357 copies/mL for DENV-3, and 720 copies/mL for DENV-4. The presence of NS1 in plasma was determined using the Platelia NS1 assay (Bio-Rad) and was performed according to the manufacturer's instructions. Plasma cytokine levels (interleukin 1β [IL-1β], IL-2, IL-4, IL-5, IL-6, IL-10, IL-12p70, IL-13, interferon γ [IFN-γ], and tumor necrosis factor α [TNF-α]) were measured using a Bio-Plex human cytokine assay (Bio-Rad) and a multiplex array reader (Luminex Systems, Bio-Plex workstation from Bio-Rad Laboratories) according to the manufacturer's instructions. Briefly, 50-μL plasma samples were incubated with monoclonal antibody coupled beads. […] Cytokine concentrations in samples were calculated by use of recombinant cytokines as standards and software provided by the manufacturer (Bio-Plex Manager). […]"}, "[3]": {"settings": "High-dose (3000 mg twice a day, 5 days), n = 22"}, "[4]": {"settings": "Low-dose (1500 mg twice a day, 5 days), n = 10"}}, "data": [{"compound": "CC(C)C(=O)OC[C@@]1(N=[N+]=[N-])O[C@@H](n2ccc(N)nc2=O)[C@H](OC(=O)C(C)C)[C@@H]1OC(=O)C(C)C", "note": "[Balapiravir]", "values": [{"measurement": "effect on fever clearance time, clinical signs and routine laboratory findings", "setting": "[1]; 1500 mg or 3000 mg twice daily for 5 days versus placebo", "result": "did not affect"}, {"measurement": "Maximum ALT level, Mean", "setting": "[1]; [3]", "result": 75.2, "unit": "IU/L"}, {"measurement": "Maximum ALT level, Median (IQR)", "setting": "[1]; [3]", "result": "68.5 (33.3–104.5) IU/L"}, {"measurement": "Maximum AST level, Mean", "setting": "[1]; [3]", "result": 118.4, "unit": "IU/L"}, {"measurement": "Maximum AST level, Median (IQR)", "setting": "[1]; [3]", "result": "108.0 (45.0–151.5) IU/L"}, {"measurement": "Maximum INR, Mean", "setting": "[1]; [3]", "result": 1.27}, {"measurement": "Maximum INR, Median (IQR)", "setting": "[1]; [3]", "result": "1.17 (1.09–1.22)"}, {"measurement": "Maximum aPTT, Mean", "setting": "[1]; [3]", "result": 41.8, "unit": "s"}, {"measurement": "Maximum aPTT, Median (IQR)", "setting": "[1]; [3]", "result": "41.8 (38.3–44.1) s"}, {"measurement": "Maximum recorded hematocrit level, Mean", "setting": "[1]; [3]", "result": 44.6, "unit": "%"}, {"measurement": "Maximum recorded hematocrit level, Median (IQR)", "setting": "[1]; [3]", "result": "45.1 (41.8–46.1) %"}, {"measurement": "Median fever clearance time (IQR)", "setting": "[1]; [3]", "result": "3 (2–4) d"}, {"measurement": "Minimum fibrinogen level, Mean", "setting": "[1]; [3]", "result": 1.88, "unit": "g/L"}, {"measurement": "Minimum fibrinogen level, Median (IQR)", "setting": "[1]; [3]", "result": "1.86 (1.60–2.03) g/L"}, {"measurement": "Minimum platelet count, Mean", "setting": "[1]; [3]", "result": "54.4 10^9 cells/L"}, {"measurement": "Minimum platelet count, Median (IQR)", "setting": "[1]; [3]", "result": "52 (25.5–64.8) 10^9 cells/L"}, {"measurement": "Maximum percentage increase of hematocrit level, Mean", "setting": "[1]; [3]", "result": 2.6, "unit": "%"}, {"measurement": "Maximum percentage increase of hematocrit level, Median (IQR)", "setting": "[1]; [3]", "result": "1.2 (−4.1–9.2) %"}, {"measurement": "Minimum quality of life score, Mean", "setting": "[1]; [3]", "result": 74.45}, {"measurement": "Minimum quality of life score, Median (IQR)", "setting": "[1]; [3]", "result": "77.5 (67.8–82.0)"}, {"measurement": "Maximum ALT level, Mean", "setting": "[1]; [4]", "result": 96.3, "unit": "IU/L"}, {"measurement": "Maximum ALT level, Median (IQR)", "setting": "[1]; [4]", "result": "97.5 (58.0–128.8) IU/L"}, {"measurement": "Maximum AST level, Mean", "setting": "[1]; [4]", "result": 143.6, "unit": "IU/L"}, {"measurement": "Maximum AST level, Median (IQR)", "setting": "[1]; [4]", "result": "157.5 (116.5–171.5) IU/L"}, {"measurement": "Maximum INR, Mean", "setting": "[1]; [4]", "result": 1.17}, {"measurement": "Maximum INR, Median (IQR)", "setting": "[1]; [4]", "result": "1.16 (1.05–1.26)"}, {"measurement": "Maximum aPTT, Mean", "setting": "[1]; [4]", "result": 41.3, "unit": "s"}, {"measurement": "Maximum aPTT, Median (IQR)", "setting": "[1]; [4]", "result": "40.6 (39.6–43.1) s"}, {"measurement": "Maximum recorded hematocrit level, Mean", "setting": "[1]; [4]", "result": 46.7, "unit": "%"}, {"measurement": "Maximum recorded hematocrit level, Median (IQR)", "setting": "[1]; [4]", "result": "45.8 (43.8–49.3) %"}, {"measurement": "Median fever clearance time (IQR)", "setting": "[1]; [4]", "result": "3 (2–4) d"}, {"measurement": "Minimum fibrinogen level, Mean", "setting": "[1]; [4]", "result": 1.94, "unit": "g/L"}, {"measurement": "Minimum fibrinogen level, Median (IQR)", "setting": "[1]; [4]", "result": "2.08 (1.68–2.25) g/L"}, {"measurement": "Minimum platelet count, Mean", "setting": "[1]; [4]", "result": "26.3 10^9 cells/L"}, {"measurement": "Minimum platelet count, Median (IQR)", "setting": "[1]; [4]", "result": "23 (16.5–33.0) 10^9 cells/L"}, {"measurement": "Maximum percentage increase of hematocrit level, Mean", "setting": "[1]; [4]", "result": 11.5, "unit": "%"}, {"measurement": "Maximum percentage increase of hematocrit level, Median (IQR)", "setting": "[1]; [4]", "result": "11.8 (3.1–15.3) %"}, {"measurement": "Minimum quality of life score, Mean", "setting": "[1]; [4]", "result": 78.3}, {"measurement": "Minimum quality of life score, Median (IQR)", "setting": "[1]; [4]", "result": "77.0 (69.8–89.0)"}, {"measurement": "kinetics of plasma cytokine concentrations and whole blood transcriptional profile", "setting": "[2]; balapiravir treatment versus placebo", "result": "not attenuated"}, {"measurement": "treatment-related effects on whole blood gene transcript abundance", "setting": "[2]; baseline, study days 4 and 28, data not shown", "result": "no evidence of treatment-related effects"}]}]}
